Experimental data as given in US9168286B2, “Methods and compositions for use in treatment of patients with autoantibody positive disease” (Human Genome Sciences, Inc., priority 2005, dated 2015).

Tests used:
[1] = tested on: Pim1 and Pim 2; assay: Western blot of Pim1 and Pim 2 expression in primary B cells; type: cell-based, mouse; settings: 2 days, 100 ng/ml rhuNeutrokine-alpha
Procedure: Antibodies and Western Blotting: Mouse anti-Pim 2 (1D12), Pim 1 (19F7), goat anti-actin (1-19), anti-mouse Ig, anti-rabbit Ig and anti-goat Ig coupled to HRP were obtained from Santa Cruz Biotechnology, Santa Cruz Calif. […] Rabbit anti-mouse Mcl-1 was purchased from Rockland, Wilmington Mass. Whole cell lysates were prepared by washing B cells in ice cold PBS and lysing in RIPA (150 mM NaCl, 1% NP-40, 0.5% sodium deoxycholate, 0.1% SDS, 50 mM Tris pH8.0) supplemented with protease inhibitors (minitab, Roche, Indianapolis Ind.) and phosphatase inhibitor cocktails I and II (Sigma). 10-50 ug of protein was resolved on 4-12% NuPage bis-tris polyacrylamide gels (Invitrogen, Carlsbad Calif.) and transferred to nitrocellulose. Blots were blocked with 3% BSA (Sigma, IgG free), 0.2% Tween-20 in PBS and incubated with primary antibody in the same buffer overnight at 4° C. Blots were washed with PBS-0.2% Tween-20, incubated with secondary antibody conjugated with HRP and developed using ECLplus (Amersham Bioscience, Piscataway N.J.). Blots were stripped for reprobing by incubation for 20 minutes at 65° C. in PBS supplemented with 1% SDS and […] β-mercaptoethanol. Blots were then washed and blocked as above. […]

[2] = tested on: B cells; assay: B cell survival assay; type: cell-based, mouse; settings: Pim-1−/−2−/− B cells, 100 ng/ml rhuNeutrokine-alpha, 4 days
Text: Mice: Pim-1^+/+2^+/+, Pim-1^−/−2^+/+, Pim-1^+/+2^−/− and Pim-1^−/−2^−/− mice were generated from Pim-1^+/−2^+/− stock of Paul Rothman Columbia University, New York, N.Y. C57BL/6 (B6) mice were from The Jackson Laboratory, Bar Harbor Me. or from the National Cancer Institute Production Program, NCI-Fredrick, Fredrick Md. Animals were bred and maintained at the Univ. of Pennsylvania, Harvard Medical School, or the Univ. of Massachusetts Medical School in accordance with Institutional Animal Care and Use Committee guidelines.
B cell purification: Splenic B cells were obtained by anti-thy1.2 and complement treatment of splenocytes followed by purification of resting B cells using a step wise percoll gradient and harvesting cells at the 60-70% interface. […]
Survival assays: B cells at 5×10^6/ml were cultured in 24-well tissue culture dishes in CM at 37° C. […] Survival was monitored daily by counting viable cells using trypan blue exclusion with each determination done in triplicate.
Rapamycin is a potent inhibitor of mTOR and a potent suppressor of B cell proliferation and differentiation. […] Viable cells were determined at day 4. […]

[3] = tested on: Akt/mTOR pathway; assay: Western blotting of Akt/mTOR pathway phosphorylation in B cells; type: cell-based, mouse
Procedure: Cell cultures: Purified B cells or CD23′ B cells were cultured in RPMI-1640 supplemented with 2-mercaptoethanol, MEM-non-essential amino acids, glutamine, penicillin and streptomycin (complete media, CM). For B cell survival and other assays recombinant human Neutrokine-alpha made at Human Genome Sciences, Rockville Md. was used at 50-100 ng/ml. FLAG-tagged human Neutrokine-alpha was from Dr. Randolph Noelle, Dartmouth Medical School. Murine Neutrokine-alpha was purchased from Alexis Biochemicals, San Diego Calif. and human interferon alpha (IFNα) from PBL Biomedical, Piscataway, N.J. Rapamycin was used at a final concentration of 50 nM, added to cultures from a stock dissolve in methanol. Control B cells in experiments using rapamycin were treated with methanol as a vehicle control. For kinetic assays B cells were prepared and refrigerated overnight at 4° C. 5-6×10^6 purified B cells per sample were spun onto 24-well plates that had been coated with 5 ug/ml monoclonal anti-FLAG M2 antibody (Sigma), washed, blocked with 1% BSA in PBS, followed by the addition of FLAG-tagged human Neutrokine-alpha 2 ug/well an hour prior to washing and cell addition. Unstimulated control B cells were those spun onto wells treated with anti-FLAG antibody alone. B cells were also activated by incubation with anti-murine IgM (5 ug/ml), anti-CD40 (0.5 ug/ml) or 100 ng/ml of recombinant human Neutrokine-alpha added to kinetic assay buffer (Hank's balanced salt solution plus 2% BSA).
Antibodies and Western Blotting: Mouse anti-Pim 2 (1D12), Pim 1 (19F7), goat anti-actin (1-19), anti-mouse Ig, anti-rabbit Ig and anti-goat Ig coupled to HRP were obtained from Santa Cruz Biotechnology, Santa Cruz Calif. […] Rabbit anti-mouse Mcl-1 was purchased from Rockland, Wilmington Mass. […]
Purified B cells were stimulated for the 0, 5, 20, 60 or 120 minutes with 100 ng/ml recombinant human or murine Neutrokine-alpha or anti-Ig (positive control) at 37° C. in pregassed medium. Lysates were prepared from iced samples and analyzed by Western Blot. […]

[4] = tested on: Neutrokine-alpha in monocytes and macrophages; assay: Neutrokine-alpha expression in cytokine-treated monocytes and macrophages; type: cell-based; settings: in vitro
[5] = tested on: B cell; assay: Neutrokine-alpha mediated B cell proliferation with cytokines; type: cell-based
Procedure: In an additional embodiment, an immunomodulatory agent is administered in combination with cytokines. Cytokines that may be administered with an immunomodulatory agent include, but are not limited to, GM-CSF, G-CSF, IL2, IL3, IL4, IL5, IL6, IL7, IL10, IL12, IL13, IL15, anti-CD40, CD40L, IFN-alpha, IFN-beta, IFN-gamma, TNF-alpha, and TNF-beta. In another embodiment, an immunomodulatory agent may be administered with any interleukin, including but not limited to, IL-1alpha, IL-1beta, IL-2, IL-3, IL-4, IL-5, IL-6, IL-7, IL-8, IL-9, IL-10, IL-11, IL-12, IL-13, IL-14, IL-15, IL-16, IL-17, IL-18, IL-19, IL-20, IL-21, and IL-22. In preferred embodiments, an immunomodulatory agent is administered in combination with IL4 and IL10. Both IL4 and IL10 have been observed by the inventors to enhance Neutrokine-alpha mediated B cell proliferation.

Molecule	Pim1 and Pim 2 expression [1]	B cell survival [2]	mTOR activation (phosphorylation of p70 S6 kinase and 4E-BP1) ([3]; primary B cells)	Akt phosphorylation (serine 473 and threonine 308) ([3]; primary B cells, 100 ng/ml, 0-120 minutes)	phosphorylation of GSKβ, FOXO1 and FOXO3a ([3]; purified B cells, plate bound FLAG-tagged or soluble (100 ng/ml) Neutrokine-alpha)	cell surface expression of Neutrokine-alpha [4]	Neutrokine-alpha mediated B cell proliferation [5]
Neutrokine-alpha: recombinant human Neutrokine-alpha made at Human Genome Sciences; member of the TNF family of ligands	upregulate	enhanced survival	activation of mTOR	activation of the Akt pathway	phosphorylation of the Akt substrates	–	–
IL-10: cytokine (protein, UniProt P22301 19-178, looked up) Interleukin-10: SPGQGTQSENSCTHFPGNLPNMLRDLRDAFSRVKTFFQMKDQLDNLLLKESLLEDFKGYLGCQALSEMIQFYLEEVMPQAENQDPDIKAHVNSLGENLKTLRLRLRRCHRFLPCENKSKAVEQVKNAFNKLQEKGIYKAMSEFDIFINYIEAYMTMKIRN	–	–	–	–	–	enhance	enhance
IFN gamma: cytokine (protein, UniProt P01579 24-161, looked up) Interferon gamma: QDPYVKEAENLKKYFNAGHSDVADNGTLFLGILKNWKEESDRKIMQSQIVSFYFKLFKNFKDDQSIQKSVETIKEDMNVKFFNSNKKKRDDFEKLTNYSVTDLNVQRKAIHELIQVMAELSPAAKTGKRKRSQMLFRG	–	–	–	–	–	enhance	–
IL-4: cytokine (protein, UniProt P05112 25-153, looked up) Interleukin-4: HKCDITLQEIIKTLNSLTEQKTLCTELTVTDIFAASKNTTEKETFCRAATVLRQFYSHHEKDTRCLGATAQQFHRHKQLIRFLKRLDRNLWGLAGLNSCPVKEANQSTLENFLERLKTIMREKYSKCSS	–	–	–	–	–	decreased	enhance
